Earlier results, collected in US20100120780A1, “TREATMENTS FOR PREMATURE EJACULATION IN HUMANS” (priority 2007, published 2010).
Counter-ions that a name gives are not always drawn.

Experiments:
[1] = oral administration, Viagra formulation
[2] = molecular target: phosphodiesterase type 5 (PDE5) (Homo sapiens, UniProt O76074); conditions: PDE5 vs PDE6
[3] = for accumulation: multiple dose treatment with tramadol
μ-opiate receptors = μ-opiate receptors (Homo sapiens, UniProt P35372)
[4] = rats
[5] = 0.2M sodium chloride

Sequence of μ-opiate receptors (P35372 whole entry): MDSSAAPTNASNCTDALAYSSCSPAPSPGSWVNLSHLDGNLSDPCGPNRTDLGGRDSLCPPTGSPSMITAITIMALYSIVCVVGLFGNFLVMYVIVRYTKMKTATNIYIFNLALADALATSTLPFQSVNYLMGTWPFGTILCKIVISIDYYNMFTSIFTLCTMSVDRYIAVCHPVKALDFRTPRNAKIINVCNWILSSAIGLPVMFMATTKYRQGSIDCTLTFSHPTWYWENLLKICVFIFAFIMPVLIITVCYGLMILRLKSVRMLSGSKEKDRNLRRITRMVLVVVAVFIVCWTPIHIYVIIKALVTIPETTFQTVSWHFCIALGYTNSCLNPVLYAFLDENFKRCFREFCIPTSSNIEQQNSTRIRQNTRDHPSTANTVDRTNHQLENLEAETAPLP

CCCc1nn(C)c2c(=O)[nH]c(-c3cc(S(=O)(=O)N4CCN(C)CC4)ccc3OCC)nc12 [sildenafil, 1-[[3-(6,7-dihydro-1-methyl-7-oxo-3-propyl-1H-pyrazolo[4,3-d]pyrimidin-5-yl)-4-ethoxyphenyl]sulfonyl]-4-methyl piperazine]
absolute bioavailability [1]: about 40%
potency for PDE5 compared to PDE6 [2]: about 10 fold

COc1cccc(C2(O)CCCCC2CN(C)C)c1 (racemic) [tramadol, (+/−)-trans (RR,SS)-2-[(di-methylamino)methyl]-1-(3-methoxyphenyl)cyclohexanol]
accumulation [3]: approximately 2 fold
time to peak serum concentrations ([3]; oral administration): ≤ 2 h
affinity for μ-opiate receptors, fold less than codeine (μ-opiate receptors; relative to codeine): 10 fold
affinity for μ-opiate receptors, fold less than d-propoxyphene (μ-opiate receptors; relative to d-propoxyphene): 100 fold
affinity for μ-opiate receptors compared to dextromethorphan (μ-opiate receptors; relative to dextromethorphan): equivalent
affinity for μ-opiate receptors, fold less than morphine (μ-opiate receptors; relative to morphine): 6,000 fold
duration of the analgesic effect (single oral dose of tramadol 100 mg): about 6 hours

COc1cc(CNC(=O)CCCCC=CC(C)C)ccc1O [capsaicin, 8-methyl-N-vanillyl-6-nonenamide]
time to distribution to the brain, spinal cord, liver and blood ([4]; intravenous administration): ≤ 20 min
absorption in the jejunum ([4]; oral dosing, after 3 hours): 85%

CN(C)C[C@H]1CCCC[C@]1(O)c1cccc(O)c1 [M1 derivative, O-desmethyltramadol]
accumulation [3]: approximately 2 fold
analgesic potency relative to the parent drug (relative to tramadol): at least twice

COc1ccc(C(CN(C)C)C2(O)CCCCC2)cc1 (racemic) [Venlafaxine hydrochloride, (R/S)-1-[2-(dimethylamino)-1-(4-methoxyphenyl)ethyl]cyclohexanol]
octanol:water partition coefficient [5]: 0.43
